A word on the inhibition: it is the relative decrease from the control value, in per cent.

Molecules are shown by their SMILES.

What all share (type): cell-based
Test [1] in a line: Inhibition of RPMI-8226 cell proliferation (CellTiter luminescent viability). Particulars: Homo sapiens; RPMI-8226; 10 nM; read-out: Inhibition Rate at 10 nM (%).
Test [2] has as its system Human B-Cell Lymphoma Cells (RPMI-8226). The description is as above. Particulars: RPMI-8226, 500 nM, read-out: Inhibition Rate at 500 nM (%).
Test [3] concerns Human lung cancer cell line (H292). Nature of the test: Inhibition of H292 cell proliferation (CellTiter luminescent viability). Particulars: NCI-H292, Table IM1, CDK9 inhibitor-based, 96 hours; for inhibition at 0.01 µM: H292, 10 nM, read-out: Inhibition Rate at 10 nM (%); for inhibition at 0.5 µM: H292, 500 nM, read-out: Inhibition Rate at 500 nM (%).
In another test the target is T1, CDK4 (Homo sapiens, UniProt P11802+Q96SW2).
T1 construct: expression of target proteins in cells; endogenous in cells
T1 sequence (P11802 whole entry): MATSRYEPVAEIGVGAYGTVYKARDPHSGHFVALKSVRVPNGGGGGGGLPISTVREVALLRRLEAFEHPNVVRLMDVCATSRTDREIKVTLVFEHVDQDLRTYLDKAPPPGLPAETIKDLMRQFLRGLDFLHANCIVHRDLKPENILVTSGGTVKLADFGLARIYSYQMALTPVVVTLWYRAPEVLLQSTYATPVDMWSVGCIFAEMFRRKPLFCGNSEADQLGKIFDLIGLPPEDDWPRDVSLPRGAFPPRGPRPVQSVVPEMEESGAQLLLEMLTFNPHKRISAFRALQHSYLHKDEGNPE
T1 sequence (Q96SW2 whole entry): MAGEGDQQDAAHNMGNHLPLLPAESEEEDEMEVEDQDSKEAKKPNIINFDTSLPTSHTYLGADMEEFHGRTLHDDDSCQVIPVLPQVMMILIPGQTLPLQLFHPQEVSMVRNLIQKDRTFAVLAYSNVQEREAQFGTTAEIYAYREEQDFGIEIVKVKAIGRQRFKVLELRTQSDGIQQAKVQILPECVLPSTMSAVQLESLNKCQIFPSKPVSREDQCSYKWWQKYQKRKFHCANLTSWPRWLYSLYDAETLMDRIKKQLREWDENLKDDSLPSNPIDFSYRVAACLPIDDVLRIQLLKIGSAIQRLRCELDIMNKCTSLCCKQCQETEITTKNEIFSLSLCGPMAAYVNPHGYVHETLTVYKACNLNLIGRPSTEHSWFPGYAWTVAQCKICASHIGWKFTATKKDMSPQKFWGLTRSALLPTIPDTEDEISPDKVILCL
T1 sequence (Q16531 whole entry partner): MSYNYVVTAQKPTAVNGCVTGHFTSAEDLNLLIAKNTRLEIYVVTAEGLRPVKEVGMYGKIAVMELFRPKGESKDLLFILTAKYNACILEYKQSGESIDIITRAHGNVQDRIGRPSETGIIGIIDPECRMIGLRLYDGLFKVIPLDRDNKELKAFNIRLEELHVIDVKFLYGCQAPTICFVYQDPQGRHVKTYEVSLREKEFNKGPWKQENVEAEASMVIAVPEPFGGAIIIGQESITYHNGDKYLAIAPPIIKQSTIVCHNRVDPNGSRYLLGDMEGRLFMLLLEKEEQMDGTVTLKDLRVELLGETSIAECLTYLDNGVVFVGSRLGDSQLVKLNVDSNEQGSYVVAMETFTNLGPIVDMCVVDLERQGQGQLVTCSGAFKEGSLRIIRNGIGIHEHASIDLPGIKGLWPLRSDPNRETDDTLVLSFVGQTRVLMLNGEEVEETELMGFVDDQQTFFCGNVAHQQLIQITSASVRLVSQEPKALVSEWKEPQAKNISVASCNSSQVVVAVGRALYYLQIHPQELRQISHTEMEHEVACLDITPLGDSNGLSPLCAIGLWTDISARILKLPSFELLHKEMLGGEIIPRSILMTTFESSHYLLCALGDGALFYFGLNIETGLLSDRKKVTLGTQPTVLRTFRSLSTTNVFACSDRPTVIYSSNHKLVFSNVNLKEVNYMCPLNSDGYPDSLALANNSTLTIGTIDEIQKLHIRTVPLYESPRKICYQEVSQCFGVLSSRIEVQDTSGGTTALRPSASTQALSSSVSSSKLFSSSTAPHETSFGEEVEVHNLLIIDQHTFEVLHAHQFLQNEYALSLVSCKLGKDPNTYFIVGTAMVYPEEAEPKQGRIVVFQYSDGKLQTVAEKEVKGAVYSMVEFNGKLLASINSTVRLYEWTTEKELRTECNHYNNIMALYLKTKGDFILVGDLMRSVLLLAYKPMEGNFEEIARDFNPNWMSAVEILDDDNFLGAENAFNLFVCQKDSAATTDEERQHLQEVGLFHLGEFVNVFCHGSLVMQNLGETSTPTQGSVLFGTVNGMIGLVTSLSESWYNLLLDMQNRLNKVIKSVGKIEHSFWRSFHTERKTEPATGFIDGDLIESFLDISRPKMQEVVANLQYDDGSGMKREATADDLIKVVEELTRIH
Nature of the test: Western blot degradation of CDK4. Particulars: MDA-MB-231 Cell; 24 hours. The procedure: (§1) Conventional Western blot assay was performed to evaluate the effects of the compounds of the present disclosure on the expression of target proteins in cells.
(§2) (1) Cell Seeding and Protein Harvesting: The selected cells were processed according to the cell seeding procedure and protein harvesting procedure in Table II-2.
(§3) (2) To the collected supernatant, 5×SDS sample loading buffer was added, followed by denaturation at 95 °C for 5 minutes. The denatured samples were then separated by SDS-PAGE electrophoresis on a polyacrylamide gel. Proteins were transferred to a nitrocellulose membrane (0.45 μm NC membrane), blocked with blocking buffer at room temperature for 1 hour, and subjected to antibody incubation and development procedures according to the antibody manufacturer's instructions (Cell Signaling Technology).
(§4) Half-Maximal Degradation Concentration value (the drug concentration required for degrading proteins by 50%, abbreviated as DC50) reads method: comparing the grayscale values of Western blot bands from drug-treated samples with those from blank DMSO-treated controls, and identifying the drug concentration range at which the grayscale value is half that of the DMSO-treated control bands.
(§5) DC50 values can be calculated using ImageJ software to measure grayscale values of Western blot bands from drug-treated samples. The concentration-response curve is fitted to estimate the drug concentration corresponding to half the grayscale value.
(§6) Target protein remaining (%) refers to the percentage of target protein remaining in cells after treatment with protein degrader compounds.
(§7) Calculation method for target protein remaining (%): Use ImageJ software to measure grayscale values of Western blot bands from drug (protein degrader)-treated samples. The grayscale value of drug-treated bands is divided by that of internal control protein bands, and the resulting quotient is normalized to obtain the relative percentage of remaining target protein after protein degrader treatment.
(§8) Target protein degradation rate (%)=1−target protein remaining (%).

The target of the next test is T2, CDK6 (Homo sapiens, UniProt Q00534+Q96SW2).
T2 construct: expression of target proteins in cells; endogenous in cells
T2 sequence (Q00534 whole entry): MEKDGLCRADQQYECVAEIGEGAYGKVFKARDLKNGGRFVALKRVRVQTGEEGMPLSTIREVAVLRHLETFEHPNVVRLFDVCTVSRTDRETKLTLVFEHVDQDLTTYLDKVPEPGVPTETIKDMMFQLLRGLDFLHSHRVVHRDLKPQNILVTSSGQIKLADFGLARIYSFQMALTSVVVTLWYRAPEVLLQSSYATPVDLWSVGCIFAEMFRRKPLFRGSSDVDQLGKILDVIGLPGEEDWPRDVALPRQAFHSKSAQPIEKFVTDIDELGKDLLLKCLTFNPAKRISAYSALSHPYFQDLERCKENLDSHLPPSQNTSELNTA
T2 sequence (Q96SW2 whole entry): as the sequence (Q96SW2 whole entry) above
T2 sequence (Q16531 whole entry partner): as the sequence (Q16531 whole entry partner) above
Nature of the test: Western blot degradation of CDK6. Particulars: MDA-MB-231 Cell; 24 hours. The procedure: as §1, §2, §3, §4, §5, §6, §7, §8
On the technique in general: A western blot detects proteins with antibodies after separation by electrophoresis.

`N#CC1(CNc2nc(-c3cc(NC4CCN(CC5CCN(c6ccc7c(c6)C(=O)N(N6CCC(=O)NC6=O)C7=O)CC5)CC4)ncc3Cl)cs2)CCOCC1` [GT-04719, 4-(((4-(5-chloro-2-((1-((1-(2-(2,4-dioxotetrahydropyrimidin-1(2H)-yl)-1,3-dioxoisoindolin-5-yl)piperidin-4-yl)methyl)piperidin-4-yl)amino)pyridin-4-yl)thiazol-2-yl)amino)methyl)tetrahydro-2H-pyran-4-carbonitrile]: the inhibition at 0.01 µM in test [1] was in the range of 10 to 20%; in test [3] it was 5 to 10%. Further, the inhibition at 0.5 µM in test [2] lay within 20 to 30%; in test [3] it was 15 to 20%.

Consider `CN(C)C(=O)c1cc2cnc(Nc3ccc(N4CCC(CN5CC6CCC(C5)N6c5ccc6c(c5)C(=O)N(N5CCC(=O)NC5=O)C6=O)CC4)cn3)nc2n1C1CCCC1` [GT-05200, 7-cyclopentyl-2-((5-(4-((8-(2-(2,4-dioxotetrahydropyrimidin-1(2H)-yl)-1,3-dioxoisoindolin-5-yl)-3,8-diazabicyclo[3.2.1]octan-3-yl)methyl)piperidin-1-yl)pyridin-2-yl)amino)-N,N-dimethyl-7H-pyrrolo[2,3-d]pyrimidine-6-carboxamide], for which the “Degradation of substrate protein CDK4 (substrate protein remaining %)” value at CDK4 was “B (80%<substrate protein remaining %≤100%)”. Besides, on CDK6, the “Degradation of substrate protein CDK6 (substrate protein remaining %)” value is recorded as “A (0%≤substrate protein remaining %≤80%)”.

Take `CN(C)C(=O)c1cc2cnc(Nc3ccc(N4CCC(CN5CCN(c6ccc7c(c6F)C(=O)N(N6CCC(=O)NC6=O)C7=O)CC5)CC4)cn3)nc2n1C1CCCC1` [GT-05203, 7-cyclopentyl-2-((5-(4-((4-(2-(2,4-dioxotetrahydropyrimidin-1(2H)-yl)-4-fluoro-1,3-dioxoisoindolin-5-yl)piperazin-1-yl)methyl)piperidin-1-yl)pyridin-2-yl)amino)-N,N-dimethyl-7H-pyrrolo[2,3-d]pyrimidine-6-carboxamide]: the “Degradation of substrate protein CDK4 (substrate protein remaining %)” value on CDK4 was “B (80%<substrate protein remaining %≤100%)”. Moreover, the “Degradation of substrate protein CDK6 (substrate protein remaining %)” value on CDK6 was “A (0%≤substrate protein remaining %≤80%)”.

Consider `CN(C)C(=O)c1cc2cnc(Nc3ccc(N4CCC(CN5CCN(c6cc(F)c7c(c6)C(=O)N(N6CCC(=O)NC6=O)C7=O)CC5)CC4)cn3)nc2n1C1CCCC1` [GT-05204, 7-cyclopentyl-2-((5-(4-((4-(2-(2,4-dioxotetrahydropyrimidin-1(2H)-yl)-7-fluoro-1,3-dioxoisoindolin-5-yl)piperazin-1-yl)methyl)piperidin-1-yl)pyridin-2-yl)amino)-N,N-dimethyl-7H-pyrrolo[2,3-d]pyrimidine-6-carboxamide], for which, on CDK4, the “Degradation of substrate protein CDK4 (substrate protein remaining %)” value was “B (80%<substrate protein remaining %≤100%)”. For the same compound, the “Degradation of substrate protein CDK6 (substrate protein remaining %)” value on CDK6 is “A (0%≤substrate protein remaining %≤80%)”.

Take `CN(C)C(=O)c1cc2cnc(Nc3ccc(N4CCC(CN5CCN(C6CCN(c7ccc8c(c7)C(=O)N(N7CCC(=O)NC7=O)C8=O)CC6(F)F)CC5)CC4)cn3)nc2n1C1CCCC1` (stereo not drawn) [GT-05206, 7-cyclopentyl-2-((5-(4-((4-(1-(2-(2,4-dioxotetrahydropyrimidin-1(2H)-yl)-1,3-dioxoisoindolin-5-yl)-3,3-difluoropiperidin-4-yl)piperazin-1-yl)methyl)piperidin-1-yl)pyridin-2-yl)amino)-N,N-dimethyl-7H-pyrrolo[2,3-d]pyrimidine-6-carboxamide]: at CDK4, the “Degradation of substrate protein CDK4 (substrate protein remaining %)” value is recorded as “B (80%<substrate protein remaining %≤100%)”. The “Degradation of substrate protein CDK6 (substrate protein remaining %)” value at CDK6 is reported as “A (0%≤substrate protein remaining %≤80%)”.

On to `CN(C)C(=O)c1cc2cnc(Nc3ccc(N4CCC(CN5C6CC5CN(c5ccc7c(c5)C(=O)N(N5CCC(=O)NC5=O)C7=O)C6)CC4)cn3)nc2n1C1CCCC1` [GT-05820, 7-cyclopentyl-2-((5-(4-((3-(2-(2,4-dioxotetrahydropyrimidin-1(2H)-yl)-1,3-dioxoisoindolin-5-yl)-3,6-diazabicyclo[3.1.1]heptan-6-yl)methyl)piperidin-1-yl)pyridin-2-yl)amino)-N,N-dimethyl-7H-pyrrolo[2,3-d]pyrimidine-6-carboxamide], for which the “Degradation of substrate protein CDK4 (substrate protein remaining %)” value at CDK4 is reported as “B (80%<substrate protein remaining %≤100%)”. Moreover, the “Degradation of substrate protein CDK6 (substrate protein remaining %)” value at CDK6 is “A (0%≤substrate protein remaining %≤80%)”.

Take `CN(C)C(=O)c1cc2cnc(Nc3ccc(N4CCC(CN5CC6CCC5CN6c5ccc6c(c5)C(=O)N(N5CCC(=O)NC5=O)C6=O)CC4)cn3)nc2n1C1CCCC1` (stereo not drawn) [GT-05831, 7-cyclopentyl-2-((5-(4-((5-(2-(2,4-dioxotetrahydropyrimidin-1(2H)-yl)-1,3-dioxoisoindolin-5-yl)-2,5-diazabicyclo[2.2.2]octan-2-yl)methyl)piperidin-1-yl)pyridin-2-yl)amino)-N,N-dimethyl-7H-pyrrolo[2,3-d]pyrimidine-6-carboxamide]: the “Degradation of substrate protein CDK4 (substrate protein remaining %)” value on CDK4 is recorded as “B (80%<substrate protein remaining %≤100%)”. The “Degradation of substrate protein CDK6 (substrate protein remaining %)” value on CDK6 was “A (0%≤substrate protein remaining %≤80%)”.

Take `Cn1ncc(-c2nc(NC3CCN(Cc4ccc5c(c4)CN(N4CCC(=O)NC4=O)C5=O)CC3)ncc2Cl)c1CC1CC1` [GT-08212, 1-(5-((4-((5-chloro-4-(5-(cyclopropylmethyl)-1-methyl-1H-pyrazol-4-yl)pyrimidin-2-yl)amino)piperidin-1-yl)methyl)-1-oxoisoindolin-2-yl)dihydropyrimidine-2,4 (1H,3H)-dione]: the inhibition at 0.01 µM in test [1] and in test [3] was 20 to 30% in each case. The values for the inhibition at 0.5 µM in test [2] and in test [3] were 5 to 10% and 30 to 40%, respectively.

Consider `N#CC1(CNc2cccc(-c3cc(NC4CCN(Cc5ccc6c(c5)C(=O)N(N5CCC(=O)NC5=O)C6=O)CC4)ncc3Cl)n2)CCOCC1` [GT-08215, 4-(((5′-chloro-2′-((1-((2-(2,4-dioxotetrahydropyrimidin-1(2H)-yl)-1,3-dioxoisoindolin-5-yl)methyl)piperidin-4-yl)amino)-[2,4′-bipyridin]-6-yl)amino)methyl)tetrahydro-2H-pyran-4-carbonitrile], for which the inhibition at 0.01 µM in test [1] and in test [3] was 20 to 30% in each case. The inhibition at 0.5 µM in test [2] and in test [3] was 20 to 30% each time.

`O=C1CCN(N2Cc3cc(CN4CCN(c5ccc(CC(=O)Nc6cc(C7CCC7)[nH]n6)cc5)CC4)ccc3C2=O)C(=O)N1` [GT-08229, N-(5-cyclobutyl-1H-pyrazol-3-yl)-2-(4-(4-((2-(2,4-dioxotetrahydropyrimidin-1(2H)-yl)-1-oxoisoindolin-5-yl)methyl)piperazin-1-yl)phenyl)acetamide]: the inhibition at 0.01 µM in test [1] was 10 to 20%; in test [3] it was 20 to 30%. Further, the figures for the inhibition at 0.5 µM in test [2] and in test [3] were 10 to 20% and 30 to 40%, respectively.

In the case of `Cn1ncc(-c2nc(NC3CCN(CC4CCN(c5cccc6c5C(=O)N(N5CCC(=O)NC5=O)C6=O)CC4)CC3)ncc2Cl)c1CC1CC1` [GT-08347, 4-(4-((4-((5-chloro-4-(5-(cyclopropylmethyl)-1-methyl-1H-pyrazol-4-yl)pyrimidin-2-yl)amino)piperidin-1-yl)methyl)piperidin-1-yl)-2-(2,4-dioxotetrahydropyrimidin-1(2H)-yl)isoindoline-1,3-dione], the inhibition at 0.01 µM is 20 to 30% in test [1] and 5 to 10% in test [3]. For the same compound, the inhibition at 0.5 µM in test [2] was in the range of 10 to 20%; in test [3], 20 to 30%.

With `O=C1CCN(N2C(=O)c3ccc(N4CCC(CN5CCN(c6ccc(CC(=O)Nc7cc(C8CCC8)[nH]n7)cc6)CC5)CC4)cc3C2=O)C(=O)N1` [GT-08350, N-(5-cyclobutyl-1H-pyrazol-3-yl)-2-(4-(4-((1-(2-(2,4-dioxotetrahydropyrimidin-1(2H)-yl)-1,3-dioxoisoindolin-5-yl)piperidin-4-yl)methyl)piperazin-1-yl)phenyl)acetamide], the inhibition at 0.01 µM in test [1] lay in the range of 10 to 20%; in test [3], 40 to 50%. Also, the inhibition at 0.5 µM was 20 to 30% in test [2] and 40 to 50% in test [3].

(Values after patent publication US20260364184A1, “COMPOUND BASED ON OXOISOINDOLINYL-SUBSTITUTED TETRAHYDROPYRIMIDINE-DIONE AND USE THEREOF” (GLUETACS THERAPEUTICS (SHANGHAI) CO., LTD., priority 2023, published 2026).)
